Measurements reported in patent publication US20250230193A1, “CYCLIC COMPOUND HAVING SELECTIVE KRAS INHIBITORY EFFECT ON HRAS AND NRAS” (CHUGAI SEIYAKU KABUSHIKI KAISHA, priority 2022, published 2025).

Experiments:
[1] = target: GDP-bound NRAS wild-type protein (Homo sapiens, UniProt P01111); assay: Binding to NRAS by surface plasmon resonance (SPR), Single Cycle Kinetics
[2] = target: GDP-bound HRAS wild-type protein (Homo sapiens, UniProt P01112); assay: Binding to HRAS by surface plasmon resonance (SPR), Single Cycle Kinetics
[3] = SPR, GDP-bound NRAS wild-type vs GDP-bound KRAS wild-type
[4] = SPR, GDP-bound HRAS wild-type vs GDP-bound KRAS wild-type
[5] = KD ratio, GDP-bound NRAS wild-type vs GDP-bound KRAS wild-type, SPR
[6] = KD ratio, GDP-bound HRAS wild-type vs GDP-bound KRAS wild-type, SPR

Chain of GDP-bound NRAS wild-type protein (P01111 whole entry): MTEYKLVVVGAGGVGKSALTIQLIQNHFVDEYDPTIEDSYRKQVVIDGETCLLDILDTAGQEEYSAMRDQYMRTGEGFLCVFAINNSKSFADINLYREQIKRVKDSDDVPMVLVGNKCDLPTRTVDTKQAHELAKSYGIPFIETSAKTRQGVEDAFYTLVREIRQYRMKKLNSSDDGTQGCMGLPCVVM
Chain of GDP-bound HRAS wild-type protein (P01112 whole entry): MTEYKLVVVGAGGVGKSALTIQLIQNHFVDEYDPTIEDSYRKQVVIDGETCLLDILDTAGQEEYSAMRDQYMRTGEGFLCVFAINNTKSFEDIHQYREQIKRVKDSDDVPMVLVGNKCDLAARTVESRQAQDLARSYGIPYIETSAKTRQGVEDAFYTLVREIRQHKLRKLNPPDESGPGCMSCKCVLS

Structure (SMILES): CCCOC[C@H]1C(=O)N[C@@H]([C@@H](C)CC)C(=O)N(C)CC(=O)N(C)[C@H]2C/C=C\CCN(C2=O)[C@@H](Cc2ccc(C)cc2)C(=O)N(C)CC(=O)N[C@@H](CCc2cc(F)c(C(F)(F)F)c(F)c2)C(=O)N2C[C@H](CCC)C[C@H]2C(=O)NC2(CC(C)(C)C2)C(=O)N(C)[C@@H](C2CCCC2)C(=O)N(C)[C@H](C(=O)N(C)C)CC(=O)N1C [PP2203]
- NRAS/KRAS (ratio of KD value with respect to NRAS to KD value with respect to KRAS) [1, 3]: A (a compound having 10 or more and less than 20 is denoted as A)
- HRAS/KRAS (ratio of KD value with respect to HRAS to KD value with respect to KRAS) [2, 4]: A (a compound having 10 or more and less than 20 is denoted as A)

Structure (SMILES): CCO[C@@H]1C[C@H]2C(=O)NC3(CC(F)(F)C3)C(=O)N(C)[C@@H](C(CC)CC)C(=O)N(C)[C@H](CC)CC(=O)N(C)[C@@H](CC3CC3)C(=O)N[C@@H]([C@@H](C)CC)C(=O)N(C)CC(=O)N(C)[C@H]3C/C=C\CCN(C3=O)[C@@H](Cc3ccc(C(F)(F)F)cc3)C(=O)N(C)CC(=O)N[C@@H](CCc3cc(F)c(C(F)(F)F)c(F)c3)C(=O)N2C1 [PP1632]
- NRAS/KRAS (ratio of KD value for NRAS to KD value for KRAS) [1, 5]: A (a compound having 10 or more and less than 20 is denoted as A)
- HRAS/KRAS (ratio of KD value for HRAS to KD value for KRAS) [2, 6]: A (a compound having 10 or more and less than 20 is denoted as A)

Structure (SMILES): CCO[C@@H]1C[C@H]2C(=O)NC3(CCC3)C(=O)N(C)[C@@H](C3CCCC3)C(=O)N(C)[C@H](C(=O)N(C)C)CC(=O)N(C)[C@@H](Cc3cccc(Cl)c3)C(=O)N[C@@H]([C@@H](C)CC)C(=O)N(C)CC(=O)N(C)[C@H]3CCCCCN(C3=O)[C@@H](Cc3ccc(C(F)(F)F)cc3)C(=O)N(C)CC(=O)N[C@@H](CCc3cc(F)c(C(F)(F)F)c(F)c3)C(=O)N2C1 [PP0939]
- NRAS/KRAS (ratio of KD value with respect to NRAS to KD value with respect to KRAS) [1, 5]: B (a compound having 3 or more and less than 10 is denoted as B)
- HRAS/KRAS (ratio of KD value with respect to HRAS to KD value with respect to KRAS) [2, 6]: B (a compound having 3 or more and less than 10 is denoted as B)

Structure (SMILES): CC[C@H](C)[C@@H]1NC(=O)[C@H](CC(C)C)N(C)C(=O)C[C@@H](C(=O)N(C)C)N(C)C(=O)[C@H](C2CCCC2)N(C)C(=O)C2(CCCC2)NC(=O)[C@@H]2CCCN2C(=O)[C@H](CCc2ccc(C(F)(F)F)c(Cl)c2)NC(=O)CN(C)C(=O)[C@H](Cc2ccc(F)cc2)N2CCCCC[C@@H](C2=O)N(C)C(=O)CN(C)C1=O [PP0971]
- NRAS/KRAS (ratio of KD value with respect to NRAS to KD value with respect to KRAS) [1, 5]: B (a compound having 3 or more and less than 10 is denoted as B)
- HRAS/KRAS (ratio of KD value with respect to HRAS to KD value with respect to KRAS) [2, 6]: B (a compound having 3 or more and less than 10 is denoted as B)

Structure (SMILES): CCO[C@@H]1C[C@H]2C(=O)NC3(CC(C)(C)C3)C(=O)N(C)[C@@H](C(CC)CC)C(=O)N(C)[C@H](C(=O)N(C)C)CC(=O)N(C)[C@@H](CC3CC3)C(=O)N[C@@H]([C@@H](C)CC)C(=O)N(C)CC(=O)N(C)[C@H]3C/C=C\CCN(C3=O)[C@@H](Cc3ccc(C)cc3)C(=O)N(C)CC(=O)N[C@@H](CCc3cc(F)c(C(F)(F)F)c(F)c3)C(=O)N2C1 [PP2137]
- NRAS/KRAS (ratio of KD value with respect to NRAS to KD value with respect to KRAS) [1, 3]: A (a compound having 10 or more and less than 20 is denoted as A)
- HRAS/KRAS (ratio of KD value with respect to HRAS to KD value with respect to KRAS) [2, 4]: A (a compound having 10 or more and less than 20 is denoted as A)

Structure (SMILES): CCO[C@@H]1C[C@H]2C(=O)NC3(CCCC3)C(=O)N(C)[C@@H](C3CCCC3)C(=O)N(C)[C@H](C(=O)N(C)C)CC(=O)N(C)[C@@H](CC)C(=O)N[C@@H]([C@@H](C)CC)C(=O)N(C)CC(=O)N(C)[C@H]3CC(C)=CCN(C3=O)[C@@H](Cc3ccc(C(F)(F)F)cc3)C(=O)N(C)CC(=O)N[C@@H](CCc3cc(F)c(C(F)(F)F)c(F)c3)C(=O)N2C1 [PP1036]
- NRAS/KRAS (ratio of KD value with respect to NRAS to KD value with respect to KRAS) [1, 5]: C (A compound having a KD ratio of 0.1 or more and less than 3 is denoted as C)
- HRAS/KRAS (ratio of KD value with respect to HRAS to KD value with respect to KRAS) [2, 6]: C (A compound having a KD ratio of 0.1 or more and less than 3 is denoted as C)

Structure (SMILES): CCO[C@@H]1C[C@H]2C(=O)NC3(CCC3)C(=O)N(C)[C@@H](C3CCCC3)C(=O)N(C)[C@H](C(=O)N3CCCCC3)CC(=O)N(C)[C@H]3CCC/C=C/c4ccc(cc4)C[C@@H](C(=O)N(C)CC(=O)N[C@@H](CCc4ccc(Cl)c(Cl)c4)C(=O)N2C1)N1CC/C=C\C[C@@H](C1=O)N(C)C(=O)CN(C1CC1)C(=O)[C@H]([C@@H](C)CC)NC3=O [PP2958]
- NRAS/KRAS (ratio of KD value with respect to GDP-bound NRAS wild-type protein to KD value with respect to KRAS) ([1]; KD ratio NRAS/KRAS, class symbols): AA (a compound having 20 or more is denoted as AA)
- HRAS/KRAS (ratio of KD value with respect to GDP-bound HRAS wild-type protein to KD value with respect to KRAS) ([2]; KD ratio HRAS/KRAS, class symbols): A (a compound having 10 or more and less than 20 is denoted as A)
